Source: EP1304101A1, “Composition and method for use of pyridinium derivatives in cosmetic and therapeutic applications” (Torrent Pharmaceuticals Ltd, priority 2001, dated 2003)
“And” between values parts separate entries of the source, which are not always exact repeats. Equal entries are not always repeated. Each block holds one compound with its values, some of them ahead of it.

Assays:
[1] = Free radical scavenging activity on ABTS radical cation (absorbance at 730nm); type: biochemical
Experimental: This method measures the relative ability of free radical scavenging substances to scavenge the ABTS ^.+ i.e. 2,2-Azino-bis-(3-ethyl benzo thiazoline-6-sulfonate) radical cation as compared to a standard amount of standard or free radical scavengers antioxidants. Incubation of ABTS with Peroxidase (metmyoglobin) and hydrogen peroxide results in the production of radical cation ABTS^.+ . This species is blue- green in colour and can be detected at 730nm. Antioxidants or free radical scavengers in the added sample that causes suppression of the color to a degree that is proportional to their concentration.
• A. Phosphate Citrate Buffer (pH 5.0): 48.5ml of 0.1M citric acid with sufficient 0.2M disodium hydrogen phosphate to produce 100 ml. • B. Phosphate Buffer Saline (PBS): Dissolve 40.0g of NaCl, 1.0g of KCI, 1.0g of KH2PO4 and 3.05g of Na2HPO4 in 1 litre milli-Q water. Dilute 200ml of above solution to 1 litre with milli-Q water (pH 7.4-7.6). • C. 3µM stock solution of Peroxidase was prepared in phosphate buffer saline pH 7.4(PBS). • D. 1.08 mM stock solution of Hydrogen peroxide was prepared in phosphate buffer saline pH 7.4 (PBS).
1 tablet (10mg) was dissolved in phosphate citrate buffer (pH 5.0).
5.0ml of ABTS stock solution was diluted with PBS to 20 ml.
320 µg of the enzyme was dissolved in 2.5 ml of PBS.
12µl of Hydrogen Peroxide (30%w/v) was diluted to 100ml with PBS.
0.1mM of stock solution of the drug was prepared which was serially diluted in PBS to get solutions of different concentrations.
To 18ml of ABTS stock solution, 100µl of Horseradish Peroxidase stock solution was added.
As soon as 1.5 ml of hydrogen peroxide solution was added to the above solution, blue-green colour of the ABTS radicals appeared. This solution was incubated at 30°C for 30 min.
980µl of ABTS radical stock solution was added to an eppendorf tube. To it was added 100µl of various PBS solution.
980µl of ABTS radical stock solutions were added to different eppendorf tubes. To it were added 100µl of various concentrations of drug solution.
The absorbance of control and test samples was recorded immediately at 730nm taking PBS as blank.
Calculation: The percent antioxidant activity was calculated according to the formula: % Antioxidant activity = [O.D of test sample/O.D of control*100]-100.

AGE-BSA = target: T1, AGE-BSA (Bos taurus, UniProt P02769); test: In-vitro AGE breaking activity by ELISA (16 weeks AGE-BSA incubated with test compound); type: biochemical, bovine; conditions: for % Breakage: 37°C, 24 hours; for AGE breaking activity compared to PTB / potency (AGE breaking activity compared to PTB): comparison in words based on Table 2
T1 construct: Bovine serum albumin (fraction V) (BSA); from tissue
T1 sequence (P02769 25-607): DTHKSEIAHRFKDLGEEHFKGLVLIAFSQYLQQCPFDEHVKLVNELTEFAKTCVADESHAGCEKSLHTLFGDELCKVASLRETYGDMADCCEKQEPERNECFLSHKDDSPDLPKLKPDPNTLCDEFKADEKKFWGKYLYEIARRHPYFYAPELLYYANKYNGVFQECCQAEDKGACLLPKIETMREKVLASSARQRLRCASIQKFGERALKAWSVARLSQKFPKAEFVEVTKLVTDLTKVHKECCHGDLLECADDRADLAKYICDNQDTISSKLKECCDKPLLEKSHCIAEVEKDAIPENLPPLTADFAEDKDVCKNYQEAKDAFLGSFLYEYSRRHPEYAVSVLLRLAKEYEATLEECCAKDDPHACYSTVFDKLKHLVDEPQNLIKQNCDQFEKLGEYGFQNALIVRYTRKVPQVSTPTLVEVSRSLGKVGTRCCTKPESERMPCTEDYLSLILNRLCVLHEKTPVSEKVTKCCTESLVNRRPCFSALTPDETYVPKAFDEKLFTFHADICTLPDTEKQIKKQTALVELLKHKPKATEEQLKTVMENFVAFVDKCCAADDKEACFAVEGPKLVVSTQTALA
Experimental: AGE breaking activity has been confirmed by the screening procedure as mentioned below: • Materials: • Bovine serum albumin (fraction V) (BSA) • Glucose, analytical grade • Phosphate buffered saline (PBS) • Equipment: • Microplate ELISA Reader - Spectramax Plus (Molecular Devices, USA) • Microplate washer, (Bio -Tec Instruments, USA) • pH meter • Methods of experiment: Elisa (Enzyme Linked Immunosorbent Assay) 160 mg/ml of protein, bovine serum albumin, BSA and 1.6M glucose sugar were dissolved in phosphate buffered saline, PBS. Sodium azide was added at 0.02% concentration as a preservative. The solution was filtered asceptically through a 0.22 µM filter and kept for aging at 37°C for 16 weeks. After 16 weeks the solution was dialyzed against PBS, aliquoted and stored at - 20°C.
To determine the AGE breaking activity, 10 µg/ml of the 16 weeks AGE-BSA was incubated with different concentrations of the test compounds at 37°C for 24 hours and AGE breaking activity of the test compounds by ELISA was determined.
Different concentrations of 16 weeks AGE-BSA were coated on a microtitre plate as standard. Each concentration is coated in triplicates. • 2. The test samples were coated on microtitre plate at a concentration of 5 ng. to 20 ng per well in triplicates. • 3. The plate was incubated at 37°C for one hour. • 4. After incubation the plate was washed with PBST (PBS with 0.05% Tween 20). • 5. Blocking with 5% skimmed milk in PBS at 37°C for one hour was done. • 6. The plate was washed with PBST. • 7. Primary antibody against AGE-BSA was added and the plate is incubated at 37°C for one hour. • 8. The plate was washed with PBST • 9. Secondary antibody anti rabbit HRPO (Horse-Radish Per Oxidase) conjugate was added and the plate is incubated at 37°C for one hour. • 10. The plate was washed with PBST. • 11. Colour development with OPD (orthophenylenediamine dihydrochloride) and hydrogen peroxide was done. • 12. OD (optical density) at (450nm reading - 620nm reading) was measured after incubation at 37°C for 15 minutes with Microplate ELISA Reader.
The breaker activity of the compounds were determined by the following formula: % Breaker activity =(OD450-620 Control - OD450-620 Test)/(OD450-620 Control)x 100 [formula] OD450-620Control= Absorbance of 20ng AGE-BSA after incubation at 37°C for 24 hours without test compound OD450-620Test= Absorbance of 20ng AGE-BSA after incubation at 37°C for 24 hours with required concentration of test compound

% Breakage (AGE-BSA; 1 mM test compound): 42.01%
AGE breaking activity compared to PTB (AGE-BSA): superior
potency (AGE breaking activity compared to PTB) (AGE-BSA): significantly much higher
SMILES: CS(=O)(=O)NNC(=O)c1ccc[n+](CC(=O)c2ccc([N+](=O)[O-])s2)c1 [Compound 67, 1-2-(5-nitro-thien-2-yl)-2-oxoethyl)-3-(methanesulfonyl hydrazino carbonyl) pyridinium chloride]
Relative Free Radical Scavenging Activity(%) on ABTS ([1]; 11.5µM): 13.11%
Relative Free Radical Scavenging Activity(%) on ABTS ([1]; 23.0µM): 50.70%
Relative Free Radical Scavenging Activity(%) on ABTS ([1]; 46.0µM): 97.46%
Relative Free Radical Scavenging Activity(%) on ABTS ([1]; 92.5µM): 99.43%

SMILES: O=C(C[n+]1cccc(C(=O)NNc2ccccc2)c1)Nc1ccccc1.[Cl-] [Compound 65, 1-(2-phenylamino-2-oxoethyl)-3-(phenyl hydrazinocarbonyl) pyridinium chloride]
Relative Free Radical Scavenging Activity(%) on ABTS ([1]; 11.5µM): 27.67%
Relative Free Radical Scavenging Activity(%) on ABTS ([1]; 23.0µM): 59.20%
Relative Free Radical Scavenging Activity(%) on ABTS ([1]; 46.0µM): 94.14%
Relative Free Radical Scavenging Activity(%) on ABTS ([1]; 92.5µM): 100.00%
% Breakage (AGE-BSA; 2.5 mM test compound): 68.35%
AGE breaking activity compared to PTB (AGE-BSA): superior
potency (AGE breaking activity compared to PTB) (AGE-BSA): significantly much higher

SMILES: CS(=O)(=O)NNC(=O)c1ccc[n+](CC(=O)c2ccc(Cl)s2)c1.[Br-] [Compound 55, 1-(2-(5-chlorothien-2-yl)-2-oxoethyl)-3-(methanesulfonyl hydrazinocarbonyl) pyridinium bromide]
Relative Free Radical Scavenging Activity(%) on ABTS ([1]; 11.5µM): 46.47%
Relative Free Radical Scavenging Activity(%) on ABTS ([1]; 23.0µM): 84.97%
Relative Free Radical Scavenging Activity(%) on ABTS ([1]; 46.0µM): 99.50%
Relative Free Radical Scavenging Activity(%) on ABTS ([1]; 92.5µM): 99.93%
% Breakage (AGE-BSA; 10 mM test compound): 40.85%

SMILES: CS(=O)(=O)NNC(=O)c1ccc[n+](CC(=O)N2CCC(Cc3ccccc3)CC2)c1.[Cl-] [Compound 51, 1-(2-(4-benzylpiperidin-1-yl)-2-oxoethyl)-3-(methanesulfonyl hydrazinocarbonyl) pyridinium chloride]
Relative Free Radical Scavenging Activity(%) on ABTS ([1]; 11.5µM): 0.00%
Relative Free Radical Scavenging Activity(%) on ABTS ([1]; 23.0µM): 21.64%
Relative Free Radical Scavenging Activity(%) on ABTS ([1]; 46.0µM): 52.82%
Relative Free Radical Scavenging Activity(%) on ABTS ([1]; 92.5µM): 83.94%
% Breakage (AGE-BSA; 10 mM test compound): 20.94%

SMILES: CS(=O)(=O)NNC(=O)c1ccc[n+](CC(=O)c2cc([N+](=O)[O-])cs2)c1.[Br-] [Compound 64, 1-(2-(4-nitrothien-2-yl)-2-oxoethyl)-3-(methanesulfonyl hydrazinocarbonyl) pyridinium bromide]
Relative Free Radical Scavenging Activity(%) on ABTS ([1]; 11.5µM, listed as Compound No.64, 11.5 µM): 41.8% and 26.01%
Relative Free Radical Scavenging Activity(%) on ABTS ([1]; 23.0µM, listed as Compound No.64, 23 µM): 55.7% and 57.39%
Relative Free Radical Scavenging Activity(%) on ABTS ([1]; 46.0µM, listed as Compound No.64, 46 µM): 72.2% and 99.30%
Relative Free Radical Scavenging Activity(%) on ABTS ([1]; 92.5µM, listed as Compound No.64, 92.5 µM): 99.0% and 99.62%
Relative Free Radical Scavenging Activity(%) on ABTS ([1]; 925µM): 100%
% Breakage (AGE-BSA; 10 mM test compound): 60.94%
AGE breaking activity compared to PTB (AGE-BSA): superior
potency (AGE breaking activity compared to PTB) (AGE-BSA): significantly much higher

SMILES: O=C(NCCO)c1ccc[n+](CC(=O)c2cccs2)c1 [Compound 90, 1-(2-Thien-2'-yl-2-oxoethyl)-3-((2-hydroxyethyl)aminocarbonyl) pyridinium bromide]
Relative Free Radical Scavenging Activity(%) on ABTS ([1]; 11.5µM): 47.8%
Relative Free Radical Scavenging Activity(%) on ABTS ([1]; 23.0µM): 58.8%
Relative Free Radical Scavenging Activity(%) on ABTS ([1]; 46.0µM): 78.2%
Relative Free Radical Scavenging Activity(%) on ABTS ([1]; 92.5µM): 99.5%
Relative Free Radical Scavenging Activity(%) on ABTS ([1]; 925µM): 100%
% Breakage (AGE-BSA; 10 mM test compound): 50%

SMILES: COCCNC(=O)c1ccc[n+](CC(=O)c2ccc(Cl)cc2Cl)c1.[Br-] [Compound 38, 1-(2', 4'-dichlorophenyl-2-oxoethyl)-3-(2-methoxyethylaminocarbonyl)-pyridinium bromide]
Relative Free Radical Scavenging Activity(%) on ABTS ([1]; 11.5µM): 47.2%
Relative Free Radical Scavenging Activity(%) on ABTS ([1]; 23.0µM): 54.8%
Relative Free Radical Scavenging Activity(%) on ABTS ([1]; 46.0µM): 71.0%
Relative Free Radical Scavenging Activity(%) on ABTS ([1]; 92.5µM): 89.5%
Relative Free Radical Scavenging Activity(%) on ABTS ([1]; 925µM): 100%
% Breakage (AGE-BSA; 5 mM test compound): 17.66%

SMILES: CS(=O)(=O)NNC(=O)c1cc(Br)c[n+](CC(=O)c2cccs2)c1 [Compound 53, 1-(2-thien-2'-yl-2-oxoethyl)-3-(methanesulfonyl hydrazinocarbonyl)-5-bromo pyridinium bromide]
% Breakage (AGE-BSA; 2.5 mM test compound): 29.36%

SMILES: O=C(NNC(=O)c1cccnc1Cl)c1ccc[n+](CC(=O)c2cccs2)c1 [Compound 42, 1-(2-thien-2'yl-2-oxoethyl)-3-(2-(2-chloro-3-pyridoyl)hydrazinocarbonyl) -pyridinium chloride]
% Breakage (AGE-BSA; 10 mM test compound): 12.51%

SMILES: CCCCNC(=O)c1ccc[n+](CC(=O)Nc2ccccc2)c1.[Cl-] [Compound 94, 1-(2-Phenylamino - 2-oxoethyl) - 3 - (n-butylaminocarbonyl) pyridinium chloride]
% Breakage (AGE-BSA; 10 mM test compound): 27%

SMILES: O=C(NNC(=O)c1ccc[n+](CC(=O)c2ccc(Cl)s2)c1)c1ccc[n+](CC(=O)c2ccc(Cl)s2)c1 [Compound 62, N, N'-bis [3-carbonyl-1-(2-(5-chlorothien-2-yl)-2-oxoethyl)pyridinium] hydrazine dichloride]
% Breakage (AGE-BSA; 10 mM test compound): 78.41%
AGE breaking activity compared to PTB (AGE-BSA): superior
potency (AGE breaking activity compared to PTB) (AGE-BSA): significantly much higher

SMILES: O=C(C[n+]1ccc(C(=O)NCCOC(=O)c2ccccc2)cc1)Nc1ccccc1.[Cl-] [Compound 66, 1-(2-phenylamino-2-oxoethyl)-4-[2-(benzoyloxy)ethylaminocarbonyl] pyridinium chloride]
% Breakage (AGE-BSA; 10 mM test compound): 19.07%

SMILES: Cc1ccc(C(=O)NNC(=O)c2ccc[n+](CC(=O)c3cccs3)c2)c[n+]1CC(=O)c1cccs1 [Compound 49, 1-[1-(2-thien-2'-yl-2-oxoethyl)-6-methyl-3-carbonylpyridinium]-2-[1-(2-Thien-2' -yl-2-oxoethyl)-3-carbonylpyridinium] hydrazine dichloride]
% Breakage (AGE-BSA; 2.5 mM test compound): 85.67%
AGE breaking activity compared to PTB (AGE-BSA): superior
potency (AGE breaking activity compared to PTB) (AGE-BSA): significantly much higher

SMILES: CCOC(=O)C[n+]1cccc(C(=O)NCCO)c1.[Br-] [Compound 87, 1-(2-Ethoxy-2-oxoethyl)-3-((2-hydroxyethyl)aminocarbonyl) pyridinium bromide]
% Breakage (AGE-BSA; 10 mM test compound): 43%

SMILES: CC(=O)OCCOC(=O)c1ccc[n+](CC(=O)c2ccccc2)c1.[Br-] [Compound 16, 1-(2-phenyl-2-oxoethyl) -3-(2-(acetoxy)ethyloxycarbonyl) pyridinium bromide]
% Breakage (AGE-BSA; 10 mM test compound): 16%

SMILES: CC(C)NC(=O)C[n+]1cccc(C(=O)NNS(C)(=O)=O)c1.[Cl-] [Compound 43, 1-(2-isopropylamino-2-oxoethyl)-3-(2-methylsulfonylhydrazinocarbonyl) -pyridinium chloride]
% Breakage (AGE-BSA; 10 mM test compound): 10.85%

SMILES: NC(=O)c1cc(C(=O)NNC(=O)c2ccc[n+](CC(=O)c3cccs3)c2)c[n+](CC(=O)c2cccs2)c1 [Compound 60, 1-[1-(2-thien-2'-yl-2-oxoethyl)-5-aminocarbonyl-3-carbonylpyridinium]-2-[1-(2-Thien-2'-yl-2-oxoethyl)-3-carbonylpyridinium] hydrazine dichloride]
% Breakage (AGE-BSA; 1 mM test compound): 95.36%

SMILES: COCCNC(=O)c1ccc[n+](CC(=O)NC2CC2)c1.[Cl-] [Compound 40, 1-(2-cyclopropylamino-2-oxoethyl)-3-(2-methoxyethylaminocarbonyl)-pyridinium chloride]
% Breakage (AGE-BSA; 10 mM test compound): 12.38%

SMILES: Cc1ccc(C(=O)C[n+]2cccc(C(=O)NNC(=O)c3ccc[n+](CC(=O)c4ccc(C)s4)c3)c2)s1 [Compound 58, N, N'-bis [3-carbonyl-1-(2-(5-methylthien-2-yl)-2-oxoethyl)pyridinium] hydrazine dichloride]
% Breakage (AGE-BSA; 10 mM test compound): 81.95%
